# Reference: patent US20240108557A1, “TOPICAL COMPOSITION USEFUL FOR THE DAILY CARE OF ACNE-PRONE SKIN” (Pierre Fabre Dermo-Cosmetique, priority 2021, published 2024)
# Test system: Stratum corneum
# Assay: AFM elastic modulus of Stratum corneum in skin explants (keratolytic effect)
# Set-up: species or system human
# Details: three topical applications, succinic acid 0.6 wt %, lactic acid 0.36 wt %, alone or combined (ratio 1.67)
# Protocol: Keratolytic effect was assessed by observing the skin biomechanical properties modulation (skin stiffness modulation) induced by the tested agents using Atomic Force Microscopy (AFM) in skin explants. • 1 explant by donor and treatment • 3 distinct areas were measured by explant • A minimum of 12 measures by aera
# Skin punchs of 1.2 cm were made from breast skin of women between 35 and 43 years old. […] First and second application during 1 hour, and the third-one during 3 hours. […] Mechanical properties of skin explants cryosections have been assessed, at Stratum corneum and epidermis areas, by AFM measurements.
# AFM indentation experiments were carried out with a Resolve Bioscope (Bruker Nano Surface, Santa Barbara, CA) that was mounted on an inverted optical DM18 (Leica) and a top view Bruker. All measurements of skin stiffness were performed using cantilevers with conical tips. The cantilever moved with the relief of the skin surface. This deformation was quantified by the deflection of the laser beam who are correlated with biomechanical parameters of skin surface samples. Quantitative measure of elastic modulus was used to assess Stratum corneum or epidermis cell-cell junctions stiffness after treatment.
row,Compound,inhibition of elastic modulus of Stratum corneum (stiffness reduction) compared to untreated control
1,O=C(O)CCC(=O)O [succinic acid],did not show any significant effect
2,CC(O)C(=O)O (centres unmarked) [lactic acid],did not show any significant effect
